Assay results from patent publication US20240390383A1, “DIOXAZINES AND THEIR USE IN TREATMENT OF GBA-RELATED DISEASES” (ZEVRA DENMARK A/S, priority 2021, published 2024).

Target: T1, GCase (GBA) in human fibroblast cell line GM10915 harboring the L444P GBA mutation (Homo sapiens, UniProt P04062, L483P)
T1 construct: Human fibroblast cell line GM10915 harboring the L444P GBA mutation; host or cells: GM10915 human fibroblasts
T1 sequence (P04062 40-536 L483P): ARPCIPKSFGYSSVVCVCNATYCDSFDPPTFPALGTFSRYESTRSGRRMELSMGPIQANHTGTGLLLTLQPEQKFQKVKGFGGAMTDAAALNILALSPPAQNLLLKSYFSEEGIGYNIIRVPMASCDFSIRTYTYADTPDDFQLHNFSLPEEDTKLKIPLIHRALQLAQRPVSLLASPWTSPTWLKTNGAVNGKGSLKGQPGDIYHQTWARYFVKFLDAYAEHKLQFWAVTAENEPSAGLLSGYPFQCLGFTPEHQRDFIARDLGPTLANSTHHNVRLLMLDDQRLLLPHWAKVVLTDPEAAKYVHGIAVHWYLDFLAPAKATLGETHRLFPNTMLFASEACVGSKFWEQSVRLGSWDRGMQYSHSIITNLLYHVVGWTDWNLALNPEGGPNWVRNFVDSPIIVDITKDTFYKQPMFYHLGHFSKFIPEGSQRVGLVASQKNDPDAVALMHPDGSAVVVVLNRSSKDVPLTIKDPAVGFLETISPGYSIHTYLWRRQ
Experiment: GCase activity assay (4-MUG substrate, normalised to crystal violet staining) in L444P GBA fibroblasts
Type: cell-based
Conditions: 5 days exposure; for GBA EC1.5: concentration giving 150% GCase activity (1.5-fold induction), 8-point dose range; for Emax / GBA Emax: maximum percent GCase activity relative to untreated cells in the dose range tested
In short: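 Patient fibroblasts GM10915 (L444P GBA) exposed to compounds for five days over an 8-point range, with fresh dosing every 2–3 days. Intact-cell GCase measured with 2.5 mM 4-MUG at pH 4.0 for 23 h at 37 °C (ex/em 365/445 nm), normalised to crystal violet, as % of PBS basal; Emax is the maximum reached.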

SMILES | GBA EC1.5 [µM] | Emax [%] | GBA Emax [%]
C[C@@]1(C2=NOC[C@@H](CN3CCCCC3)O2)CCCNC1 [compound 883] | 7 | 201 | –
C[C@]1(C2=NOC[C@@H](CN3CCCCC3)O2)CCCNC1 [compound 884] | 6 | 207 | –
CC1(C2=NOC[C@@H](CN3CCCCC3)O2)CCNCC1 [compound 886] | 7 | – | 203
C[C@@H]1ON=C(C2(C)CCNCC2)O[C@H]1CN1CCCCC1 [compound 887] | 5 | 233 | –

Further lines, results first:

GBA EC1.5 [µM] | Emax [%] | GBA Emax [%] | SMILES
8 | 168 | – | C1CCN(CCC2=NOC[C@@H](CN3CCCCC3)O2)CC1 [compound 890]
15 | 209 | – | C1CCN(CCC2=NOC[C@H](CN3CCCCC3)O2)CC1 [compound 891]
13 | – | 274 | CC1(C2=NOC[C@@H](CN3CCCCC3)O2)CCNCC1 [compound 892]
